Paper PMC12142043, “Cell-based high-content approach for SARS-CoV-2 neutralization identifies unique monoclonal antibodies and PI3K pathway inhibitors” (Frontiers in Cell and Developmental Biology, 2025)
Where a name gives a salt, the structure may show the parent alone. Read-outs that look alike come from different tables or passages of the source.

Key:
[1] = tested on: Calu-3 cells infected with SARS-CoV-2; format: cell-based, human; design: key to Grouping with red cluster (mock control) in UMAP: *: Clusters with mock control in high-dose treatment; conditions: for Grouping with red cluster (mock control) in UMAP: high-dose treatment; for Shift in UMAP space with increasing concentration: Figure 5C-F
[2] = tested on: SARS-CoV-2 (USA-WA1/2020) in Calu-3 cells; assay: microbe, parasite or virus in culture; format: cell-based; conditions: for EC50 / EC50 (μM) dsRNA: above 30 μM reported as >30; for EC50: read-out: EC50 (μM) dsRNA; for Effect on dsRNA / virus in dose response: Figure 5C-F
[3] = tested on: Calu-3 cells; assay: cells; conditions: Homo sapiens, Calu-3, read-out: EC50 (μM) Cell count
[4] = tested on: SARS-CoV-2 (USA-WA1/2020) in Calu-3 cells; format: cell-based; conditions: for dsRNA signal, AU High: high dose (10 µM); for dsRNA signal, AU High / dsRNA signal, AU Low: Calu-3, 48 h; for dsRNA signal, AU Low: low dose (100 nM)
[5] = tested on: Calu-3 cells; conditions: for Effect on host cell viability and morphology: Figure 5C-F; for EC50: read-out: EC50 (μM) Cell count, Calu-3, DAPI-stained nuclei, above 30 μM reported as >30
[6] = tested on: SARS-Cov-2 WA strain in A549 lung cells; format: cell-based
[7] = Severe acute respiratory syndrome coronavirus 2, Calu-3, 48 h
[8] = fold: cell count EC50 over dsRNA EC50
[9] = listed as Flavopiridol hydrochloride

COc1cc([C@@H]2c3cc4c(cc3[C@H](O)[C@H]3COC(=O)[C@@H]23)OCO4)cc(OC)c1OC [AXL1717]
Grouping with red cluster (mock control) in UMAP [1]: AXL1717*
EC50 [2, 7]: 0.00332 µM
Selectivity index [2, 8]: 246.615
EC50 [3]: 0.82 µM
dsRNA signal, AU High [4]: 13380.1 AU
dsRNA signal, AU Low [4]: 31807.4 AU

CCc1cc2c(cc1N1CCC(N3CCOCC3)CC1)C(C)(C)c1[nH]c3cc(C#N)ccc3c1C2=O [CH5424802]
Effect on host cell viability and morphology [5]: blebbing and general toxicity
Shift in UMAP space with increasing concentration [1]: adjacent yellow cluster
Effect on dsRNA / virus in dose response [2]: reduced dsRNA very well
EC50 [2, 7]: > 30 µM
EC50 [3]: > 30 µM

O=C(O[C@@H]1Cc2c(O)cc(O)cc2O[C@@H]1c1cc(O)c(O)c(O)c1)c1cc(O)c(O)c(O)c1 [Epigallocatechin gallate (EGCG), Epigallocatechin gallate]
EC50 [5]: > 30 µM
Grouping with red cluster (mock control) in UMAP [1]: Epigallocatechin gallate (EGCG)*
EC50 (μM) dsRNA [2]: None
dsRNA signal, AU High [4]: 14230.9 AU
dsRNA signal, AU Low [4]: 24448.0 AU

CN1CC[C@H](c2c(O)cc(O)c3c(=O)cc(-c4ccccc4Cl)oc23)[C@H](O)C1 [Flavopiridol HCl]
Grouping with red cluster (mock control) in UMAP [1]: Flavopiridol HCl*
EC50 [2, 7]: 11.4 µM
Selectivity index [2, 8]: 0.032
EC50 [3]: 0.364 µM
dsRNA signal, AU High [4, 9]: 187.1 AU
dsRNA signal, AU Low [4, 9]: 16139.6 AU

CC1(C)OCCn2c1nc1c(N3CCOCC3)nc(-c3cnc(N)nc3)nc12 [GDC-0084]
Grouping with red cluster (mock control) in UMAP [1]: GDC-0084*
EC50 [2, 7]: 1.5 µM
Selectivity index [2, 8]: 0.873
EC50 [3]: 1.31 µM

Cc1c(Cn2c(C)nc3c(C(=O)O)cc(N4CCOCC4)cc32)cccc1C(F)(F)F [GSK2636771]
Effect on host cell viability and morphology [5]: minimal effect on host cell viability and morphology
Shift in UMAP space with increasing concentration [1]: shift closer to cluster 1 controls
Grouping with red cluster (mock control) in UMAP [1]: GSK2636771*
Effect on dsRNA / virus in dose response [2]: reduction of dsRNA
EC50 [2, 7]: 0.319 µM
Selectivity index [2, 8]: >94
EC50 [3]: > 30 µM
Reduction of infection in representative images ([4]; Figure 4A): reduced infection greatly
dsRNA signal, AU High [4]: 841.3 AU
dsRNA signal, AU Low [4]: 28354.9 AU

CC(C)n1nc(-c2ccc3oc(N)nc3c2)c2c(N)ncnc21 [INK 128]
Effect on host cell viability and morphology [5]: little effect on host cell viability
Synergy (ZIP synergy model) [6]: Antagonism
Shift in UMAP space with increasing concentration [1]: moving into cluster 1
Grouping with red cluster (mock control) in UMAP [1]: INK 128*
Selectivity index [2]: 11.590
EC50 [2, 7]: 0.213 µM
EC50 [3]: 2.47 µM
dsRNA signal, AU High [4]: 0.0 AU
dsRNA signal, AU Low [4]: 31875.7 AU

C=CC(=O)N1CCC[C@@H](n2nc(-c3ccc(Oc4ccccc4)cc3)c3c(N)ncnc32)C1 [Ibrutinib]
Effect on host cell viability and morphology [5]: significant cell toxicity
Effect on dsRNA / virus in dose response [2]: did block the virus in high concentrations
EC50 [2, 7]: 13.7 µM
EC50 [3]: > 30 µM
dsRNA signal, AU High [4]: 3646.9 AU
dsRNA signal, AU Low [4]: 17695.2 AU

Cl.Cl.O=C(Cc1ccc(-c2ccc(OCCN3CCOCC3)cc2)cn1)NCc1ccccc1 [KX2-391 dihydrochloride]
EC50 [5]: 0.136 µM
EC50 [2]: 8.72 µM
Selectivity index [2, 8]: 0.016
dsRNA signal, AU High [4]: 1685.1 AU
dsRNA signal, AU Low [4]: 2878.5 AU

O=C(Nc1ncc(SCCN2CCCC2)s1)[C@]1(c2ccc(S(=O)(=O)C3CC3)cc2)C[C@H]1C1CCCCC1 [Ly2608204]
EC50 [5]: 20.9 µM
Grouping with red cluster (mock control) in UMAP [1]: Ly2608204*
EC50 [2]: > 30 µM
Selectivity index [2, 8]: <0.69

CN1CCN(c2ccc(OC(F)(F)F)c(Nc3ncc4c(n3)-c3c(c(C(N)=O)nn3CCO)CC4)c2)CC1 [NMS-1286937]
EC50 [2, 7]: 17.8 µM
Selectivity index [2, 8]: 0.005
EC50 [3]: 0.0916 µM
dsRNA signal, AU High [4]: 5848.8 AU
dsRNA signal, AU Low [4]: 38547.7 AU

CN(c1ncccc1CNc1nc(Nc2ccc3c(c2)CC(=O)N3)ncc1C(F)(F)F)S(C)(=O)=O [PF-00562271]
EC50 [5]: 4.39 µM
Grouping with red cluster (mock control) in UMAP [1]: PF-00562271*
EC50 [2]: 8.6 µM
Selectivity index [2, 8]: 0.510
dsRNA signal, AU Low [4]: 36485.5 AU

Cc1ccc(Nc2nccc(N(C)c3ccc4c(C)n(C)nc4c3)n2)cc1S(N)(=O)=O.Cl [Pazopanib HCl]
EC50 [5]: > 30 µM
Grouping with red cluster (mock control) in UMAP [1]: Pazopanib HCl*
EC50 [2]: 8.64 µM
Selectivity index [2, 8]: >3.5
dsRNA signal, AU High [4]: 14157.8 AU
dsRNA signal, AU Low [4]: 9479.9 AU

CCOc1cc2ncc(C#N)c(Nc3ccc(F)c(Cl)c3)c2cc1NC(=O)/C=C/CN(C)C [Pelitinib]
Grouping with red cluster (mock control) in UMAP [1]: Pelitinib*
EC50 (μM) dsRNA [2]: None
EC50 [3]: 5.88 µM

Cc1ncc(CO)c(CO)c1O [Pyridoxine]
Grouping with red cluster (mock control) in UMAP [1]: Pyridoxine*
EC50 [2, 7]: > 30 µM
EC50 [3]: > 30 µM
dsRNA signal, AU High [4]: 17847.0 AU
dsRNA signal, AU Low [4]: 29400.2 AU

COc1cc(Nc2ncc(F)c(Nc3ccc4c(n3)NC(=O)C(C)(C)O4)n2)cc(OC)c1OC [R406, reference compound]
EC50 [5]: 1.84 µM
EC50 (μM) dsRNA [2]: None
dsRNA signal, AU High [4]: 5357.1 AU
dsRNA signal, AU Low [4]: 30563.4 AU

CNC(=O)c1cc(Oc2ccc(NC(=O)Nc3ccc(Cl)c(C(F)(F)F)c3)c(F)c2)ccn1 [Regorafenib monohydrate]
EC50 [2, 7]: 6.46 µM
Selectivity index [2, 8]: >4
EC50 [3]: > 30 µM
dsRNA signal, AU High [4]: 7085.4 AU
dsRNA signal, AU Low [4]: 14285.8 AU

Cn1c(=O)c(F)c(Nc2ccc(I)cc2F)c2c(=O)n(C[C@@H](O)CO)cnc21 [TAK-733, reference compound]
EC50 [2, 7]: > 30 µM
EC50 [3]: > 30 µM
dsRNA signal, AU High [4]: 15107.2 AU
dsRNA signal, AU Low [4]: 14755.9 AU

Cc1cnc(Nc2ccc(OCCN3CCCC3)cc2)nc1Nc1cccc(S(=O)(=O)NC(C)(C)C)c1 [TG101348]
Grouping with red cluster (mock control) in UMAP [1]: TG101348*
EC50 (μM) dsRNA [2]: None
EC50 [3]: 1.61 µM
dsRNA signal, AU High [4]: 3065.1 AU
dsRNA signal, AU Low [4]: 15118.2 AU

O=C1NC(=O)[C@@H](c2cn3c4c(cccc24)CCC3)[C@@H]1c1c[nH]c2ccccc12 [Tivantinib]
EC50 [2, 7]: > 30 µM
Selectivity index [2, 8]: <.07
EC50 [3]: 2.21 µM
dsRNA signal, AU High [4]: 46631.5 AU
dsRNA signal, AU Low [4]: 19485.6 AU

CC(=O)Nc1cccc(-n2c(=O)n(C3CC3)c(=O)c3c(Nc4ccc(I)cc4F)n(C)c(=O)c(C)c32)c1 [Trametinib]
EC50 [2, 7]: 0.398 µM
Selectivity index [2, 8]: >75
EC50 [3]: > 30 µM
dsRNA signal, AU High [4]: 36456.5 AU
dsRNA signal, AU Low [4]: 10541.3 AU

CCOC(=O)C1=C[C@]2(CC)CCCN3CCc4c(n1c1ccccc41)[C@@H]32 [Vinpocetine]
EC50 [2, 7]: 25.7 µM
Selectivity index [2, 8]: >1
EC50 [3]: > 30 µM
dsRNA signal, AU High [4]: 5212.2 AU
dsRNA signal, AU Low [4]: 19993.1 AU

CC(C)c1cc(CNc2nc(Nc3cc(C4CC4)[nH]n3)cc(N3CCN(C)CC3)n2)on1 [XL228]
Grouping with red cluster (mock control) in UMAP [1]: XL228*
EC50 [2, 7]: 0.0745 µM
Selectivity index [2, 8]: 0.891
EC50 [3]: 0.0664 µM
dsRNA signal, AU High [4]: 17836.6 AU
dsRNA signal, AU Low [4]: 39819.2 AU
